ChEMBL document CHEMBL5715954, “Silencing c-Myc translation as a therapeutic strategy through targeting PI3Kδ and CK1ε in hematological malignancies” (Blood, 2017)

Assays:
Set-up in all cases: scale not given: the % may be the effect or the level left
[1] = biological target: T1, Serine/threonine-protein kinase TAO2 (Homo sapiens) (UniProt Q9UL54); assay: Inhibition of human TAOK2 assessed as enzyme activity at 1 uM using myelin basic protein as substrate preincubated for 20 mins followed by [gamma-33P]-ATP addition and measured after 120 mins by radiometric Hot-SpotSM Kinase assay relative to control
T1 sequence (whole entry): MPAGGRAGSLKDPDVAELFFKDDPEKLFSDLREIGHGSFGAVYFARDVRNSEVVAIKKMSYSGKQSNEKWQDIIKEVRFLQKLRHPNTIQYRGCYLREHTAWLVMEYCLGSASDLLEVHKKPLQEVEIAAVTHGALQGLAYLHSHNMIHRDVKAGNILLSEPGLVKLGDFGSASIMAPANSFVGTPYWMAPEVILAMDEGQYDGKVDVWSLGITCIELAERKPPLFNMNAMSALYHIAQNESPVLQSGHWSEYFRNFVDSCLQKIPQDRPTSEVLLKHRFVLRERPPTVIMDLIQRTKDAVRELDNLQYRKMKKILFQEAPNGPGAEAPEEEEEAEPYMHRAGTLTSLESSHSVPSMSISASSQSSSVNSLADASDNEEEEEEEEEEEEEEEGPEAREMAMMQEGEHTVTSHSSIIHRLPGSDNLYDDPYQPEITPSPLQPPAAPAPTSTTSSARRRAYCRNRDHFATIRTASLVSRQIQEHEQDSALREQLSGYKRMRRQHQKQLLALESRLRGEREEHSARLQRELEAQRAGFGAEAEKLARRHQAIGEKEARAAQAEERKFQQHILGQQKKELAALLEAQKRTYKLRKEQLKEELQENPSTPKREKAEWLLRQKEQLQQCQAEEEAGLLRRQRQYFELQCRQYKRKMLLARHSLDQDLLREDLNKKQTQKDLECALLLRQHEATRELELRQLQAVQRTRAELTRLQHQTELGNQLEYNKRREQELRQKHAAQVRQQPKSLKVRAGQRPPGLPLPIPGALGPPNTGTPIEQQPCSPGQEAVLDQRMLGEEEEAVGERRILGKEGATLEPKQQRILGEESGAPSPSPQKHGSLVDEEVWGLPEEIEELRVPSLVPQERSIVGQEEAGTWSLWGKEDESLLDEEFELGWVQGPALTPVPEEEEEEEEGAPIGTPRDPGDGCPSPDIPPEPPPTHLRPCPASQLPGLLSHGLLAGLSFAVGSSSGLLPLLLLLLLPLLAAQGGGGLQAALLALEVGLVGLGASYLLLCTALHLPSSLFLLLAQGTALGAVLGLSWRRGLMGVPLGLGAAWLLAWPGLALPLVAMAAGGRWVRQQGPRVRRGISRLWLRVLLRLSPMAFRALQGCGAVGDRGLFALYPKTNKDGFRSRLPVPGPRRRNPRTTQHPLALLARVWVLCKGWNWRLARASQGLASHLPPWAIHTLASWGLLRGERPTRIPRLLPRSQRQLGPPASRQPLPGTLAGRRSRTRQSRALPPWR

[2] = biological target: Epidermal growth factor receptor (Homo sapiens) (UniProt P00533); assay: Inhibition of human EGFR assessed as enzyme activity at 1 uM using poly[Glu:Tyr] (4:1) as substrate preincubated for 20 mins followed by [gamma-33P]-ATP addition and measured after 120 mins by radiometric Hot-SpotSM Kinase assay relative to control
[3] = biological target: T2, Serine/threonine-protein kinase Nek5 (Homo sapiens) (UniProt Q6P3R8); assay: Inhibition of human NEK5 assessed as enzyme activity at 1 uM using myelin basic protein as substrate preincubated for 20 mins followed by [gamma-33P]-ATP addition and measured after 120 mins by radiometric Hot-SpotSM Kinase assay relative to control
T2 sequence (whole entry): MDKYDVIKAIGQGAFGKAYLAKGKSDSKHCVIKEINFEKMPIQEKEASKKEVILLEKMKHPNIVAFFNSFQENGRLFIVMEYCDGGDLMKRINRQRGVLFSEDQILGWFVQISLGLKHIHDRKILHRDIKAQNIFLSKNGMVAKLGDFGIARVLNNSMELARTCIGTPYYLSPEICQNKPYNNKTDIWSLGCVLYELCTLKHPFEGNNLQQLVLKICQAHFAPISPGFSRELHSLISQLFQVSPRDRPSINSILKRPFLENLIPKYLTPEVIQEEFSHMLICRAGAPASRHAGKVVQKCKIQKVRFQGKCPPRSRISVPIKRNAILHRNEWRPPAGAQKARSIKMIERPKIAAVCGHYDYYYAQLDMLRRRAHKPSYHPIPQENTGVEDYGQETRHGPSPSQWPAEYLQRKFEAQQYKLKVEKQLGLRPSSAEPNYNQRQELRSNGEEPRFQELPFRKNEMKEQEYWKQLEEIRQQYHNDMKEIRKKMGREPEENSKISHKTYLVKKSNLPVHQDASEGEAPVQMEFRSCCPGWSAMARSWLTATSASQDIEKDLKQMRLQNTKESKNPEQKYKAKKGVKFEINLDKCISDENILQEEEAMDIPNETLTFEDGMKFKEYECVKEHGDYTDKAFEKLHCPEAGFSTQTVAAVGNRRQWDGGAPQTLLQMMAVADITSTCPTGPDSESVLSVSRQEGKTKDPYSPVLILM

[4] = biological target: Serine/threonine-protein kinase PAK 5 (Homo sapiens) (UniProt Q9P286); assay: Inhibition of human PAK5 assessed as enzyme activity at 1 uM using RRRLSFAEPG as substrate preincubated for 20 mins followed by [gamma-33P]-ATP addition and measured after 120 mins by radiometric Hot-SpotSM Kinase assay relative to control
Sequence of Serine/threonine-protein kinase PAK 5 (Homo sapiens) (Q9P286 whole entry, looked up): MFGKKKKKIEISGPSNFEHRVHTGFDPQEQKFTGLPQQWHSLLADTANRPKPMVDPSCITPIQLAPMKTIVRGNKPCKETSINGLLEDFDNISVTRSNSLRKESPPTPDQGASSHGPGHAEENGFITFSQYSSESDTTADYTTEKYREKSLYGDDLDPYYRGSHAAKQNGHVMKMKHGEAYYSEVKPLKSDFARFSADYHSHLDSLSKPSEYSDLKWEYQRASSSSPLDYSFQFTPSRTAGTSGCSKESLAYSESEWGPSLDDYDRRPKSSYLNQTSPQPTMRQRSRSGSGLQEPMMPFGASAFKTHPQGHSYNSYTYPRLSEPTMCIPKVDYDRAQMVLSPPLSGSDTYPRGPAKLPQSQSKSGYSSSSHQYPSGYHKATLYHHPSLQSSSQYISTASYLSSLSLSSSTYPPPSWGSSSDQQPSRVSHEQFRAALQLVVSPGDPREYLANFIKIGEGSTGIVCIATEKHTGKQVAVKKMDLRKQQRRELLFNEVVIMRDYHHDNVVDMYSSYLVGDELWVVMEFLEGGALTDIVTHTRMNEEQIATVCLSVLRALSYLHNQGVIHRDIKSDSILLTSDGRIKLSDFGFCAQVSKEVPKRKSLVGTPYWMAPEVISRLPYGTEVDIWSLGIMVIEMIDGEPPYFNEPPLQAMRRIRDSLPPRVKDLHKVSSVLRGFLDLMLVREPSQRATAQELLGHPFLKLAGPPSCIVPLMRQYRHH

Sequence of Epidermal growth factor receptor (Homo sapiens) (P00533 whole entry): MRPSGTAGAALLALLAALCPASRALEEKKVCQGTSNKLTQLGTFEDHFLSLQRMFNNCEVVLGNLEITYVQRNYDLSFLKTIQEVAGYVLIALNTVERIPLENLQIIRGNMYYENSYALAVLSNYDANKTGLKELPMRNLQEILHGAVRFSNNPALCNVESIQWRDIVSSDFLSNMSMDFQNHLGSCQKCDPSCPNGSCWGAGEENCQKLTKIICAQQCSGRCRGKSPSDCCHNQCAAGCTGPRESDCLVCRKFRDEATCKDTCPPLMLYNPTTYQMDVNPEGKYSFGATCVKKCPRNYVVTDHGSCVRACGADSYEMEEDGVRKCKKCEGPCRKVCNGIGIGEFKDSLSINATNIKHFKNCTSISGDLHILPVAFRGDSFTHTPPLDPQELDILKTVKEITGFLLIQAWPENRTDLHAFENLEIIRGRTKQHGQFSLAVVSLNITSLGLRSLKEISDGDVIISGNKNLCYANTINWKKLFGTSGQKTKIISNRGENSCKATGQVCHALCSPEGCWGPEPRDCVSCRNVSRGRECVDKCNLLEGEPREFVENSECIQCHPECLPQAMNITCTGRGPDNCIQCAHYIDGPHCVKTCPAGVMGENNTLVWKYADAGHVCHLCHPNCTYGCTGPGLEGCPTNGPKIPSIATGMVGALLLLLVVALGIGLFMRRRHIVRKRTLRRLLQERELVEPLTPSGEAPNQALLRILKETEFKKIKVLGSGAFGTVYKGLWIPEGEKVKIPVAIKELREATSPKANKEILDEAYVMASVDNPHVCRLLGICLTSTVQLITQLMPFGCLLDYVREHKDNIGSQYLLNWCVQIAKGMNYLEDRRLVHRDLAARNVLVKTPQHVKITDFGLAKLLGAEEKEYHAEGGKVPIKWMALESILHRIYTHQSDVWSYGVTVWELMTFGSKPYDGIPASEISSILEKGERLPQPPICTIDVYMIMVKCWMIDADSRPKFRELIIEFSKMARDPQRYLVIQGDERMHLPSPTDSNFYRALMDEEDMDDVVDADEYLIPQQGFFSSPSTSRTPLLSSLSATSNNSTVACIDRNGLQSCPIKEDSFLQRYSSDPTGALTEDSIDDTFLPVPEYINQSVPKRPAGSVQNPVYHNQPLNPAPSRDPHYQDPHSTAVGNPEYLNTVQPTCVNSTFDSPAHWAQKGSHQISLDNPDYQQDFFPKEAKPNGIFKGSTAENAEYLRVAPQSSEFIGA

Row | SMILES | Activity [1] | Activity [2] | Activity [3] | Activity [4]
1 | CC[C@H](Nc1ncnc2[nH]cnc12)c1nc2cccc(F)c2c(=O)n1-c1ccccc1 | 96.7% | 95.4% | 111% | 101%
2 | C[C@H](Nc1ncnc2nc[nH]c12)c1cc2cccc(Cl)c2c(=O)n1-c1ccccc1 | 93.3% | 99.1% | 92.8% | 101%
3 | CC(C)Oc1ccc(-c2nn([C@@H](C)c3oc4ccc(F)cc4c(=O)c3-c3cccc(F)c3)c3ncnc(N)c23)cc1F [UMBRALISIB] | 97.3% | 97.7% | 110% | 96.4%
